This passage reports IC50 results from patent US10106516B2, “PDE10 inhibitors and related compositions and methods” (Omeros Corporation, priority 2010, dated 2018).

One may read the IC50 as the concentration needed to halve the response being measured. Lower therefore signals inhibition by little substance.

Structures are written as SMILES.

The target of the test is T1, PDE10 (Homo sapiens, UniProt Q9Y233).
T1 construct: made in house; host or cells: Sf9 insect cells (baculovirus)
T1 sequence (Q9Y233 1-779 isoform Q9Y233-1): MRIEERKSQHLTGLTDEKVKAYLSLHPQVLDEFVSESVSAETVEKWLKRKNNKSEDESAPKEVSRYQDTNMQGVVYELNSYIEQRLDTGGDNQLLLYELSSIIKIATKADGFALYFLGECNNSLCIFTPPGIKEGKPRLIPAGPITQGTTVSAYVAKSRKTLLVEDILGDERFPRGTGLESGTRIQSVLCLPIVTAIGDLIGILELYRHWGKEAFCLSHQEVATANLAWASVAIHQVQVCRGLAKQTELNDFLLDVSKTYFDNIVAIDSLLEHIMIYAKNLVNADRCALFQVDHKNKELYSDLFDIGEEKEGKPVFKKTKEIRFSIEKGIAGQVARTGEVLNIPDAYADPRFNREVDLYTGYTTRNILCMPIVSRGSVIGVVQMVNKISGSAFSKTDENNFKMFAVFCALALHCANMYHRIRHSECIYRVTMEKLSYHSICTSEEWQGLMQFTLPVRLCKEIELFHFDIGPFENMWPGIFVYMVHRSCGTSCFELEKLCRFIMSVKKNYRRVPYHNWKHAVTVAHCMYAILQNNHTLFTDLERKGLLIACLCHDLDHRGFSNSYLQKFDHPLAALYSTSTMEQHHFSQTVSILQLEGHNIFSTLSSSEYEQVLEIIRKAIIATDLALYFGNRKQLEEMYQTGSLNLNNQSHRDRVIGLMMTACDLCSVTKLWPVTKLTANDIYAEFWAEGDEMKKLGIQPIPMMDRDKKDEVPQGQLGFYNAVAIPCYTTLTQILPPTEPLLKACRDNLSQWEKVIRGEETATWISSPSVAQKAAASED
In words: PDE10 biochemical assay (two-step Thompson and Appleman method or SPA). The settings on record: PDE10 inhibition. The protocol:
In short, cAMP is spiked with (^3H)cAMP and incubated with PDE10 and various concentrations of a compound of structure (I). After the appropriate incubation time, the reaction is terminated by heating. The mixture is then subjected to treatment with snake venom phosphatase. The phosphatase hydrolyzes any AMP in the mixture, but leaves unreacted cAMP intact. Thus, by separating cAMP from the mixture and determining its concentration (by radiography), the percent of inhibition can be determined. IC50 values can be calculated by performing the experiment at several concentrations using standard graphical means. A detailed description of the actual technique used for IC50 assays as set forth in following Examples.
The phosphodiesterase (PDE) assay was performed using recombinant human PDE 1A3, 2A3, 3 catalytic region, 4 catalytic region, 5 catalytic region, 7A, 8A, 9A2, 10A1 and 11A1 enzymes expressed in a baculoviral system using Sf9 cells. PDE activity was measured using a modification of the two-step method of Thompson and Appleman described above which was adapted for 96 well plate format. […] The final assay volume was 110 μl with assay buffer (10 mM MgCl2; 40 mM Tris.HCl; pH 7.4). Reactions were initiated with enzyme and incubated with (^3H)-substrate and substance for 20 minutes at 30° C. The reaction was terminated by denaturing the enzyme (heating the reaction to 70° C. for 2 minutes). The reaction was then cooled at 4° C. for 10 minutes before the addition of snake venom (Crotalus atrox, 0.2 mg/ml) for 10 minutes at 30° C., thus allowing non-specific hydrolysis of the tritiated substrate. Separation of the remaining unhydrolysed cyclic nucleotide was achieved by a batch binding of the mixture to activated Dowex (200 μl) anion exchange resin. The anion exchange resin bound the charged nucleotides, leaving only hydrolysed (^3H) substrate in the soluble fraction. The soluble fraction (50 μl) was then added to microscint-20 (200 μl) and counted on a Top Count Plate reader. Radioactivity units were plotted against inhibitor concentration and IC50 values obtained using Graph Pad Prism software.
Alternatively, phosphodiesterase activity was measured by scintillation proximity assay (SPA) with [^3H]-cGMP as substrate. Purified PDE10 was diluted and stored in 25 mM Tris-Cl (pH 8.0)/100 mM NaCl/0.05% Tween 20/50% glycerol/3 mM DTT. Assays contained (final concentrations): 50 mM Tris-Cl (pH 7.5)/8.3 mM MgCl2/1.7 mM EGTA/0.5 mg/ml BSA/5% DMSO and 2 ng PDE10 in a final volume of 0.1 mL. Inhibition was evaluated at 8 concentrations in duplicate. Reactions were initiated by addition of enzyme and were terminated after 20 minutes at 30° C. by the addition of 50 μl of SPA beads containing Zn^++. The mixture was shaken, allowed to settle for 3 hours, and counted in a Wallac plate counter. Results (net cpm) were fitted to a four parameter logistic model using Excel Solver®.
For the compound `COc1cc(-c2nc(C(=O)C(OC)c3ccc(N4CCOCC4)cc3)no2)cc(OC)c1Br` (centres unmarked) [Compound 54-1, 1-(5-(4-Bromo-3,5-Dimethoxyphenyl)-1,2,4-Oxadiazol-3-Yl)-2-Methoxy-2-(4-Morpholinophenyl)Ethanone], the IC50 was ≤ 1 µM.

As to `COc1cc(-c2ccc(C(=O)C(OC)c3ccc(-c4nnc(C)o4)cc3)o2)cc(OC)c1C#N` (centres unmarked) [Compound 65-12], the IC50 was ≤ 1 µM.

For `COc1cc(-c2coc(C(=O)C(OC)c3cccc(N4CCOCC4)c3)n2)cc(OC)c1Br` (centres unmarked) [Compound 65-1], the IC50 was ≤ 1 µM.

On to `COc1cc(-c2ccc(C(=O)C(OC)c3ccc(-c4nnc(C)o4)cc3)o2)cc(OC)c1C` (centres unmarked) [Compound 21-1, 1-(5-(3,5-Dimethoxy-4-Methylphenyl)Furan-2-Yl)-2-Methoxy-2-(4-(5-Methyl-1,3,4-Oxadiazol-2-Yl)Phenyl)Ethanone], for which the IC50 was ≤ 1 µM.

Consider `COc1cc(-c2ccc(C(=O)C(OC)c3ccc(CN4CCOCC4)cc3)o2)cc(OC)c1Br` (centres unmarked) [Compound 26-1, 1-(5-(4-Bromo-3,5-Dimethoxyphenyl)Furan-2-Yl)-2-Methoxy-2-(4-(Morpholinomethyl)Phenyl)Ethanone], for which the IC50 was ≤ 1 µM.

On to `COc1cc(-c2ccc(C(=O)C(OC)c3ccc(-c4nnc(C5CC5)o4)cc3)o2)cc(OC)c1OC` (centres unmarked) [Compound 60-1, 2-(4-(5-Cyclopropyl-1,3,4-Oxadiazol-2-Yl)Phenyl)-2-Methoxy-1-(5-(3,4,5-Trimethoxyphenyl)Furan-2-Yl)Ethanone], for which the IC50 was ≤ 1 µM.

Turning to `COc1cc(-c2ccc(C(=O)C(OC)c3ccc(N4CCCS4(=O)=O)cc3)o2)cc(OC)c1Br` (centres unmarked) [Compound 19-1, 1-(5-(4-Bromo-3,5-Dimethoxyphenyl)Furan-2-Yl)-2-(4-(1,1-Dioxidoisothiazolidin-2-Yl)Phenyl)-2-Methoxyethanone], the IC50 was ≤ 1 µM.

`CCOC(C(=O)c1ccc(-c2cc(OC)c(OC)c(OC)c2)o1)c1ccc(-c2nnc(C)o2)cc1` (centres unmarked) [Compound 46-1, 2-Ethoxy-2-(4-(5-Methyl-1,3,4-Oxadiazol-2-Yl)Phenyl)-1-(5-(3,4,5-Trimethoxyphenyl)Furan-2-Yl)Ethanone]: the IC50 was ≤ 1 µM.

For the compound `COc1cc(-c2ccc(C(=O)C(OC)c3ccc(N4CCOCC4)nc3)o2)cc(OC)c1Br` (centres unmarked) [Compound 44-1, 1-(5-(4-Bromo-3,5-Dimethoxyphenyl)Furan-2-Yl)-2-Methoxy-2-(6-Morpholinopyridin-3-Yl)Ethanone], the IC50 is ≤ 1 µM.

Take `CCOC(C(=O)c1ccc(-c2cc(OC)c(Br)c(OC)c2)o1)c1ccc(N2CCOCC2)cc1` (centres unmarked) [Compound 38-1, 1-(5-(4-Bromo-3,5-Dimethoxyphenyl)Furan-2-Yl)-2-Ethoxy-2-(4-Morpholinophenyl)Ethanone]: the IC50 was ≤ 1 µM.

Take `COc1cc(-c2ccc(C(=O)C(OC)c3ccc(-c4nnc(C)o4)cc3)o2)cc(C#N)c1OC` (centres unmarked) [Compound 17-1, 2,3-Dimethoxy-5-(5-(2-Methoxy-2-(4-(5-Methyl-1,3,4-Oxadiazol-2-Yl)Phenyl)Acetyl)Furan-2-Yl)Benzonitrile]: the IC50 is ≤ 1 µM.

In the case of `COc1cc(-c2ccc(C(=O)C(OC)c3ccc(-c4nnc(C)o4)cc3)o2)cc(OC)c1F` (centres unmarked) [Compound 62-1, 1-(5-(4-Fluoro-3,5-Dimethoxyphenyl)Furan-2-Yl)-2-Methoxy-2-(4-(5-Methyl-1,3,4-Oxadiazol-2-Yl)Phenyl)Ethanone], the IC50 is ≤ 1 µM.

As for `COc1cc(-c2ccc(C(=O)C(OC)c3ccc(-n4ccnn4)cc3)o2)cc(OC)c1Br` (centres unmarked) [Compound 31-1, 2-(4-(1H-1,2,3-Triazol-1-Yl)Phenyl)-1-(5-(4-Bromo-3,5-Dimethoxyphenyl)Furan-2-Yl)-2-Methoxyethanone], the IC50 was ≤ 1 µM.

Consider `CCOC(C(=O)c1ccc(-c2cc(OC)c(F)c(OC)c2)o1)c1ccc(-c2nnc(C)o2)cc1` (centres unmarked) [Compound 65-13], for which the IC50 is ≤ 1 µM.

For `COc1cc(-c2ccc(C(=O)C(OC)c3ccc(-c4nnc(C)s4)cc3)o2)cc(OC)c1OC` (centres unmarked) [Compound 65-8], the IC50 was ≤ 1 µM.

Regarding `COc1cc(-c2ccc(C(=O)C(OC)c3ccc(-c4nnc(C)o4)cc3)o2)cc(Cl)c1OC` (centres unmarked) [Compound 40-1, 1-(5-(3-Chloro-4,5-Dimethoxyphenyl)Furan-2-Yl)-2-Methoxy-2-(4-(5-Methyl-1,3,4-Oxadiazol-2-Yl)Phenyl)Ethanone], the IC50 was ≤ 1 µM.

In the case of `COc1cc(-c2coc(C(=O)C(OC)c3ccc(OC(F)(F)F)cc3)n2)cc(OC)c1Br` (centres unmarked) [Compound 65-3], the IC50 is ≤ 1 µM.

For `COc1cc(-c2ccc(C(=O)C(OC)c3ccc(-n4cccn4)cc3)o2)cc(OC)c1OC` (centres unmarked) [Compound 65-9], the IC50 is ≤ 1 µM.

As for `COc1ccc(C(OC)C(=O)c2ccc(-c3cc(OC)c(Br)c(OC)c3)o2)cn1` (centres unmarked) [Compound 42-1, 1-(5-(4-Bromo-3,5-Dimethoxyphenyl)Furan-2-Yl)-2-Methoxy-2-(6-Methoxypyridin-3-Yl)Ethanone], the IC50 was ≤ 1 µM.

Regarding `CCOC(C(=O)c1ccc(-c2cc(OC)c(Cl)c(OC)c2)o1)c1ccc(N2CCOCC2)cc1` (centres unmarked) [Compound 64-1, 1-(5-(4-Chloro-3,5-Dimethoxyphenyl)Furan-2-Yl)-2-Ethoxy-2-(4-Morpholinophenyl)Ethanone], the IC50 is ≤ 1 µM.

For `COc1cc(-c2coc(C(=O)C(OC)c3ccc(N4CCCC4)cc3)n2)cc(OC)c1Br` (centres unmarked) [Compound 7-1, 1-(4-(4-Bromo-3,5-Dimethoxyphenyl)Oxazol-2-Yl)-2-Methoxy-2-(4-(Pyrrolidin-1-Yl)Phenyl)Ethanone], the IC50 was ≤ 1 µM.

For the compound `COc1cc(-c2ccc(C(=O)C(OC)c3ccc(N4CCOCC4)cc3)o2)cc(OC)c1Br` (centres unmarked) [Compound 12-1, 1-(5-(4-Bromo-3,5-Dimethoxyphenyl)Furan-2-Yl)-2-Methoxy-2-(4-Morpholinophenyl)Ethanone], the IC50 is ≤ 1 µM.

Regarding `COc1cc(-c2ccn(C(=O)C(OC)c3ccc(N4CCOCC4)cc3)n2)cc(OC)c1Br` (centres unmarked) [Compound 52-1, 1-(3-(4-Bromo-3,5-Dimethoxyphenyl)-1H-Pyrazol-1-Yl)-2-Methoxy-2-(4-Morpholinophenyl)Ethanone], the IC50 was ≤ 1 µM.

Consider `COc1cc(-c2coc(C(=O)C(OC)c3ccc(-n4ccnn4)cc3)n2)cc(OC)c1Br` (centres unmarked) [Compound 65-4], for which the IC50 is ≤ 1 µM.

For `COc1cc(-c2coc(C(=O)C(OC)c3cnc4ccccc4c3)n2)cc(OC)c1Br` (centres unmarked) [Compound 10-1, 1-(4-(4-Bromo-3,5-Dimethoxyphenyl)Oxazol-2-Yl)-2-Methoxy-2-(Quinolin-3-Yl)Ethanone], the IC50 was ≤ 1 µM.

`COc1cc(-c2coc(C(=O)C(OC)c3ccc(N4CCCCC4)cc3)n2)cc(OC)c1Br` (centres unmarked) [Compound 6-1, 1-(4-(4-Bromo-3,5-Dimethoxyphenyl)Oxazol-2-Yl)-2-Methoxy-2-(4-(Piperidin-1-Yl)Phenyl)Ethanone]: the IC50 was ≤ 1 µM.

For the compound `COc1cc(-c2nc(C(=O)C(OC)c3ccc(N4CCOCC4)cc3)oc2C)cc(OC)c1Br` (centres unmarked) [Compound 55-1, 1-(4-(4-Bromo-3,5-Dimethoxyphenyl)-5-Methyloxazol-2-Yl)-2-Methoxy-2-(4-Morpholinophenyl)Ethanone], the IC50 is ≤ 1 µM.

As to `COc1cc(-c2ccc(C(=O)C(OC)c3ccc(-c4nnc(C)o4)cc3)o2)cc(OC)c1Br` (centres unmarked) [Compound 13-1, 1-(5-(4-Bromo-3,5-Dimethoxyphenyl)Furan-2-Yl)-2-Methoxy-2-(4-(5-Methyl-1,3,4-Oxadiazol-2-Yl)Phenyl)Ethanone], the IC50 was ≤ 1 µM.

For `COc1cc(-c2ccc(C(=O)C(OC)c3ccc(-c4nnc(C5CC5)o4)cc3)o2)cc(OC)c1Br` (centres unmarked) [Compound 22-1, 1-(5-(4-Bromo-3,5-Dimethoxyphenyl)Furan-2-Yl)-2-(4-(5-Cyclopropyl-1,3,4-Oxadiazol-2-Yl)Phenyl)-2-Methoxyethanone], the IC50 was ≤ 1 µM.

For `COc1cc(-c2ccc(C(=O)C(OC)c3ccc(N4CCOCC4)cc3)o2)cc(OC)c1OC` (centres unmarked) [Compound 65-7], the IC50 is ≤ 1 µM.

Consider `COc1cc(-c2ccc(C(=O)C(OC)c3ccc(N4CCOCC4)cc3)o2)cc(OC)c1Cl` (centres unmarked) [Compound 50-1, 1-(5-(4-Chloro-3,5-Dimethoxyphenyl)Furan-2-Yl)-2-Methoxy-2-(4-Morpholinophenyl)Ethanone], for which the IC50 is ≤ 1 µM.

For `COc1cc(-c2ccc(C(=O)C(OC)c3ccc(-c4ccc(C)o4)cc3)o2)cc(OC)c1Br` (centres unmarked) [Compound 16-1, 1-(5-(4-Bromo-3,5-Dimethoxyphenyl)Furan-2-Yl)-2-Methoxy-2-(4-(5-Methylfuran-2-Yl)Phenyl)Ethanone], the IC50 was ≤ 1 µM.
